In article PMC11295118, “Harnessing the Intrinsic Chemical Reactivity of the Mycotoxin Patulin for Immunosensing” (Analytical Chemistry, 2024):
Counter-ions that a name gives are not always drawn.

Test system: monoclonal antibodies raised against BSA–Ia
Test: Specificity of the monoclonal antibodies by competitive ELISA
Assay type: binding, mice
Conditions: for recognition by the antibodies: competitors tested separately (without derivatization)
From the text: The high affinity of the rabbit antisera for patulin after its transformation into adduct I motivated us to pursue the production of monoclonal antibodies (mAbs), given their high value in industry for the development of rapid commercial assays. To this end, standard hybridoma technology was employed with splenocytes from mice immunized with the bioconjugate BSA–Ia, the immunogen that elicited the best response in rabbits (Supporting Information). From two independent cell fusion experiments, three antibody-producing hybridomas capable of recognizing adduct I were generated. Following affinity purification, the mAbs were characterized by direct and indirect competitive ELISA using the homologous and the heterologous conjugate, i.e., based on hapten Ia or Ib, respectively. As summarized in Table S2, the three antibodies successfully recognized both coating conjugates (OVA–Ia and OVA–Ib), yielding IC50 values for patulin below 7.0 nM. […] In the direct competitive format, even better IC50 values were found with mAbs #13 and #17 when used with the homologous enzyme tracer HRP–Ia (IC50 = 0.7–0.8 nM). […]
dissolved in 8‐10 mL of 20 mM phosphate buffer, pH 7.4, and filtered through a nitrocellulose membrane (0.45 μm pore diameter). The resulting filtrate was purified by affinity chromatography with a 5 mL HiTrap Protein G HP column, and the antibody‐containing fractions were gathered and the buffer was exchanged to 20 mM phosphate buffer, pH 7.4, using Amicon Ultra 4 10k centrifugal devices. Final antibody concentration was calculated using the absorption at 280 nm and a molar extinction coefficient of 1.4 L g‐1 c m ‐1. The purified antibodies were precipitated with 1 volume of saturated ammonium sulphate for long‐term storage at 4 °C. […]
Antibody‐coated direct competitive ELISA. […] Following incubation during 10 min at rt, the reaction was stopped by adding 100 µL per well of 1 M H2SO4, and the absorbance was […]
Following incubation during 10 min at rt, the reaction was stopped by adding 100 µL per well of 1 M H2SO4, and the absorbance was immediately read. […]

Row | SMILES | recognition by the antibodies | inhibition curves compared with patulin after reacting with 7a (adduct I or derivatized patulin used as competitors)
1 | [Na][S]c1ccccc1[S][Na] [7a, sodium salt of benzene-1,2-dithiol] | did not recognize | –
2 | O=C/C(CC(=O)O)=C1\Sc2ccccc2S[C@H]1CO [adduct I] | – | overlapped
3 | O=C1C=C2C(=CCOC2O)O1 (stereo not drawn) [patulin] | did not recognize | –
